Data reported in PubChem BioAssay AID1963852 (Molecular Pharmacology Branch, DTP, NCI, 2024).

Test system: 282377-053-R-J1-PDC complex spheroid viability
Experiment: Anticancer human tumor 282377-053-R-J1-PDC patient-derived colon adenocarcinoma cell line growth inhibition [POLQ]
Conditions: for IC50: curve of first compound; for viability, T/C: stronger effect = lower value
Experimental: Multicellular complex tumor spheroid response to Polymerase (POL) inhibitors (novobiocin, ART-558, RP6685) in combination with a variety of drugs and investigational agents in selected tumor cell lines
The POL inhibitors (novobiocin, ART-558, and RP6685) were evaluated both individually and in combination with standard of care and investigational anticancer small molecules within a complex spheroid model of solid tumors. . Complex spheroids include a stromal component modeled by human endothelial cells (HUVEC) and fibroblasts modeled by human mesenchymal stem cells (MSCs). The concentration ranges selected for each drug and investigational agent were based upon clinically achievable concentrations if the clinical Cmax of the agent was known.
Compounds. The drugs and investigational agents: novobiocin (NSC847541), ART-558 (NSC835418), RP-6685 (NSC848927), peposertib (NSC802822), ceralasertib (NSC780249), elimusertib (NSC800525), camonsertib (NSC841442), AZD-1390 (NSC803789), olaparib (NSC753686), talazoparib (NSC767125), rucaparib (NSC756644), sotorasib (NSC818433), MRTX-1133 (NSC836407), SN-38 (NSC673596), topotecan (NSC609699), epotoside (NSC141540), doxorubicin (NSC123127), gemcitabine (NSC613327), 5-fluorouracil (NSC19893), paclitaxel (NSC125973), vemurafenib (NSC761431), MSA-2 (NSC828583), SN-011 (NSC837082), adavosertib (NSC754352), prexasertib (NSC758257), carboplatin (NSC241240) and oxaliplatin (NSC266046), were obtained from the National Cancer Institute (NCI) Developmental Therapeutics Program Chemical Repository (21). The FDA-approved anticancer drug set is available from the Developmental Therapeutics Program at https://dtp.cancer.gov/organization/dscb/obtaining/. […] The stock solutions were prepared in dimethyl sulfoxide (DMSO, Sigma-Aldrich, St. Louis, MO, cat. D2650), except for the platinum compounds which were prepared in saline (Quality Biological, Gaithersburg, MD, cat. 114-055-101), at 800-fold the tested concentration and stored at -70 degrees C prior to their use. All drugs and investigational agents were tested over a range starting from a high concentration at or near the clinical Cmax and decreasing in half-log increments. If the clinical Cmax for an agent had not been determined, the highest concentration tested was 10 microM, except for SN-38, which was tested at a high concentration of 1 microM.
Cell Culture. All cells were maintained in an incubator at 37 degrees C and 5% CO2 with 95% humidity. The PDC lines were cultured according to standard operating procedures established by the NCI PDMR (https://pdmr.cancer.gov). Table 3 of the manuscript, lists the cell lines along with the number of the three cell types plated to form the mct-spheroids and media for tumor cell growth. After thawing, all PDC lines, except 997537-175-T-J1-PDC and 415267-285-R-J2-PDC, were cultured in Matrigel-coated flasks prepared with a working solution of 1X Ham's F-12 nutrient mix, without supplementation (Thermo Fisher Scientific, cat. 11765054), 100 U/mL penicillin-streptomycin (Thermo Fisher Scientific, cat. 15140122), and 2.5% Matrigel (Corning Inc., Corning, NY, cat. 354248) for the first three passages. The two PDC lines 997537-175-T-J1-PDC and 415267-285-R-J2-PDC were cultured on uncoated flasks. The 857933-349-R-J2-PDC line was cultured in 6C/Colon 1B media containing advanced DMEM/F-12 (Thermo Fisher Scientific, cat. 12634028), 10 mM HEPES (Thermo Fisher Scientific, cat. 15630080), 1X GlutaMAX supplement (Thermo Fisher Scientific, cat. 35050061), 0.1 mg/mL primocin (InvivoGen, San Diego, CA, cat. ant-pm-2), 10% defined fetal bovine serum, heat inactivated (HyClone Laboratories Inc., Logan, UT, cat. SH30070.03HI), 50% L-WRN conditioned media (ATCC, cat. CRL-3276), 1.25 mM N-Acetyl-L-cysteine (Sigma-Aldrich, cat. A9165), 10 mM nicotinamide (Sigma-Aldrich, cat. N0636), 1X B-27 supplement (Thermo Fisher Scientific, cat. 17504044), 1X N-2 supplement (Thermo Fisher Scientific, cat. […]

[1] = second compound 0.0316 µM, first compound 0.0316 µM
[2] = second compound 0.0316 µM, first compound 0.1 µM
[3] = second compound 0.0316 µM, first compound 0.316 µM
[4] = second compound 0.0316 µM, first compound 1 µM
[5] = second compound 0.0316 µM, first compound 3.16 µM
[6] = second compound 0.0316 µM, first compound 10 µM
[7] = second compound 0.1 µM, first compound 0.0316 µM
[8] = second compound 0.1 µM, first compound 0.1 µM
[9] = second compound 0.1 µM, first compound 0.316 µM
[10] = second compound 0.1 µM, first compound 1 µM
[11] = second compound 0.1 µM, first compound 3.16 µM
[12] = second compound 0.1 µM, first compound 10 µM
[13] = second compound 0.316 µM, first compound 0.0316 µM
[14] = second compound 0.316 µM, first compound 0.1 µM
[15] = second compound 0.316 µM, first compound 0.316 µM
[16] = second compound 0.316 µM, first compound 1 µM
[17] = second compound 0.316 µM, first compound 3.16 µM
[18] = second compound 0.316 µM, first compound 10 µM
[19] = second compound 1 µM, first compound 0.0316 µM
[20] = second compound 1 µM, first compound 0.1 µM
[21] = second compound 1 µM, first compound 0.316 µM
[22] = second compound 1 µM, first compound 1 µM
[23] = second compound 1 µM, first compound 3.16 µM
[24] = second compound 1 µM, first compound 10 µM
[25] = second compound 3.16 µM, first compound 0.0316 µM
[26] = second compound 3.16 µM, first compound 0.1 µM
[27] = second compound 3.16 µM, first compound 0.316 µM
[28] = second compound 3.16 µM, first compound 1 µM
[29] = second compound 3.16 µM, first compound 3.16 µM
[30] = second compound 3.16 µM, first compound 10 µM
[31] = second compound 10 µM, first compound 0.0316 µM
[32] = second compound 10 µM, first compound 0.1 µM
[33] = second compound 10 µM, first compound 0.316 µM
[34] = second compound 10 µM, first compound 1 µM
[35] = second compound 10 µM, first compound 3.16 µM
[36] = second compound 10 µM, first compound 10 µM
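Note: spheroids exposed to compounds for seven days.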
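Throughout, for viability, T/C: 100% = DMSO vehicle control viability.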

SMILES: CC1COCCN1c1cc(-c2ccnn2C)c2ccnc(-c3ccn[nH]3)c2n1 (stereo unspecified) + COC1C(OC(N)=O)C(O)C(Oc2ccc3c(O)c(NC(=O)c4ccc(O)c(CC=C(C)C)c4)c(=O)oc3c2C)OC1(C)C
- IC50 (second compound 0.0316 µM): 377 nM
- IC50 (second compound 0.1 µM): 398 nM
- IC50 (second compound 0.316 µM): 589 nM
- IC50 (second compound 1 µM): 677 nM
- IC50 (second compound 3.16 µM): 450 nM
- IC50 (second compound 10 µM): 642 nM
- viability, T/C [1]: 107%
- viability, T/C [2]: 99.6%
- viability, T/C [3]: 52.5%
- viability, T/C [4]: 34.2%
- viability, T/C [5]: 26.9%
- viability, T/C [6]: 25.4%
- viability, T/C [7]: 95.2%
- viability, T/C [8]: 80.5%
- viability, T/C [9]: 52.7%
- viability, T/C [10]: 36.5%
- viability, T/C [11]: 33.9%
- viability, T/C [12]: 27.6%
- viability, T/C [13]: 95.6%
- viability, T/C [14]: 87.5%
- viability, T/C [15]: 59.9%
- viability, T/C [16]: 41.1%
- viability, T/C [17]: 25.9%
- viability, T/C [18]: 20.4%
- viability, T/C [19]: 89.1%
- viability, T/C [20]: 85.3%
- viability, T/C [21]: 68.4%
- viability, T/C [22]: 40%
- viability, T/C [23]: 27.4%
- viability, T/C [24]: 21.4%
- viability, T/C [25]: 102%
- viability, T/C [26]: 94.8%
- viability, T/C [27]: 57.3%
- viability, T/C [28]: 32.5%
- viability, T/C [29]: 26.5%
- viability, T/C [30]: 22.6%
- viability, T/C [31]: 121%
- viability, T/C [32]: 80.8%
- viability, T/C [33]: 66.7%
- viability, T/C [34]: 39.7%
- viability, T/C [35]: 33.3%
- viability, T/C [36]: 21.8%

SMILES: CC1COCCN1c1cc(C2(O)CC3CCC(C2)O3)c2cnn(-c3ccn[nH]3)c2n1 (stereo unspecified) + COC1C(OC(N)=O)C(O)C(Oc2ccc3c(O)c(NC(=O)c4ccc(O)c(CC=C(C)C)c4)c(=O)oc3c2C)OC1(C)C
- IC50 (second compound 0.0316 µM): 430 nM
- IC50 (second compound 0.1 µM): 325 nM
- IC50 (second compound 0.316 µM): 506 nM
- IC50 (second compound 1 µM): 485 nM
- IC50 (second compound 3.16 µM): 456 nM
- IC50 (second compound 10 µM): 307 nM
- viability, T/C [1]: 112%
- viability, T/C [2]: 89.5%
- viability, T/C [3]: 53.8%
- viability, T/C [4]: 35.9%
- viability, T/C [5]: 24.6%
- viability, T/C [6]: 20.8%
- viability, T/C [7]: 88.8%
- viability, T/C [8]: 92.1%
- viability, T/C [9]: 50.4%
- viability, T/C [10]: 31.4%
- viability, T/C [11]: 28.2%
- viability, T/C [12]: 18.8%
- viability, T/C [13]: 92.8%
- viability, T/C [14]: 91.3%
- viability, T/C [15]: 60.8%
- viability, T/C [16]: 32.9%
- viability, T/C [17]: 34.8%
- viability, T/C [18]: 18.7%
- viability, T/C [19]: 92.4%
- viability, T/C [20]: 77.2%
- viability, T/C [21]: 57.9%
- viability, T/C [22]: 36.3%
- viability, T/C [23]: 28.4%
- viability, T/C [24]: 19.5%
- viability, T/C [25]: 115%
- viability, T/C [26]: 74.5%
- viability, T/C [27]: 54.8%
- viability, T/C [28]: 42%
- viability, T/C [29]: 33%
- viability, T/C [30]: 18.6%
- viability, T/C [31]: 101%
- viability, T/C [32]: 73.7%
- viability, T/C [33]: 47.3%
- viability, T/C [34]: 36.4%
- viability, T/C [35]: 27.9%
- viability, T/C [36]: 22.6%

SMILES: CCc1cc2c(N3CCc4c(cc(Cn5ccnc5)cc4-c4cn(C)nc4C(F)(F)F)C3=O)cc(C)nc2c(OC)n1 + COC1C(OC(N)=O)C(O)C(Oc2ccc3c(O)c(NC(=O)c4ccc(O)c(CC=C(C)C)c4)c(=O)oc3c2C)OC1(C)C
- IC50 (second compound 0.0316 µM): > 10000 nM
- IC50 (second compound 0.1 µM): > 10000 nM
- IC50 (second compound 0.316 µM): > 10000 nM
- IC50 (second compound 1 µM): > 10000 nM
- IC50 (second compound 3.16 µM): > 10000 nM
- IC50 (second compound 10 µM): > 10000 nM
- viability, T/C [1]: 130%
- viability, T/C [2]: 152%
- viability, T/C [3]: 172%
- viability, T/C [4]: 158%
- viability, T/C [5]: 123%
- viability, T/C [6]: 74.5%
- viability, T/C [7]: 120%
- viability, T/C [8]: 157%
- viability, T/C [9]: 124%
- viability, T/C [10]: 131%
- viability, T/C [11]: 134%
- viability, T/C [12]: 68.9%
- viability, T/C [13]: 132%
- viability, T/C [14]: 126%
- viability, T/C [15]: 132%
- viability, T/C [16]: 140%
- viability, T/C [17]: 119%
- viability, T/C [18]: 67.2%
- viability, T/C [19]: 141%
- viability, T/C [20]: 128%
- viability, T/C [21]: 143%
- viability, T/C [22]: 158%
- viability, T/C [23]: 108%
- viability, T/C [24]: 80.7%
- viability, T/C [25]: 109%
- viability, T/C [26]: 125%
- viability, T/C [27]: 133%
- viability, T/C [28]: 126%
- viability, T/C [29]: 128%
- viability, T/C [30]: 73.8%
- viability, T/C [31]: 111%
- viability, T/C [32]: 109%
- viability, T/C [33]: 114%
- viability, T/C [34]: 143%
- viability, T/C [35]: 123%
- viability, T/C [36]: 80%
